Structures are written as SMILES.

The subject of one series is Oncorhynchus mykiss. The settings on record: for LC50: acute, mortality; for NOEC: chronic/long-term.
The subject of another series is Folsomia candida. The note with it: chronic/long-term; reproduction.
A further series has as its system Hypoaspis aculeifer. The settings on record: chronic/long-term; reproduction.
The test system of another series is Daphnia magna. The settings on record: chronic/long-term.
Another series has as its system Mus musculus. The settings on record: chronic; histopathology: neoplastic.
The test system of a further series is Tagia sp. The note with it: chronic/long-term; reproduction.
For another series, the system named is Rattus norvegicus. The settings on record: for LD50: acute, oral, mortality.
The subject of another series is Typhlodromus pyri. In words: LR50; higher = less toxic. The settings on record: not reported; mortality.
In another series the test system is Apis mellifera. The note with it: acute, mortality.
The mark [1] stands for this setting: duration: 21 days, reproduction.

Regarding `CC1CNC(=O)N1` (centres undefined) [4-Methyl-2-imidazolidinone], in the series with Oncorhynchus mykiss (duration: 96 hours), the LC50 was > 100 mg/L. Besides, the NOEC with Oncorhynchus mykiss (duration: 63 days, growth) is 2 mg/L; with Folsomia candida it was 90 mg/kg; with Hypoaspis aculeifer it was ≥ 100 mg/kg; with Daphnia magna (setting [1]) it was 100 mg/L; with Tagia sp. it was ≥ 1000 mg/kg. Also, in the series on Mus musculus, the NOAEL turned out to be 8 mg/kg-day.
As to `CC1CNC(=S)N1` (centres undefined) [4-Methylimidazolidine-2-thione], the LC50 with Oncorhynchus mykiss was > 100 mg/L. The NOEC in the series on Oncorhynchus mykiss (duration: 28 days, growth) is 102 mg/L; with Folsomia candida, 9 mg/kg; in the series with Hypoaspis aculeifer, ≥ 100 mg/kg; in the series with Daphnia magna (setting [1]), 3.2 mg/L; in the series on Tagia sp., 178 mg/kg. The compound further registered an LD50 in the series with Rattus norvegicus of 795 mg/kg-day. In the series with Mus musculus, this compound gave a no observed adverse effect level (NOAEL) of 0.16 mg/kg-day.
The compound `CC1CN2C(=S)SSC2=N1` (centres undefined) [6-Methyl-5,6-dihydroimidazo[2,1-C][1,2,4]dithiazole-3-thione] yielded an NOAEL in the series with Rattus norvegicus (short-term, duration: 28 days, neurology) of 0.466 mg/kg-day.
In the series on Typhlodromus pyri, `CC(CNC(=S)[S-])NC(=S)[S-].[Zn+2]` (centres undefined) [Propineb] yielded an LR50 of 5.6 g/ha. This compound also registered an LC50 with Oncorhynchus mykiss (duration: 96 hours) of 0.329 mg/L. Moreover, the NOEC with Oncorhynchus mykiss (duration: 28 days, other) was > 0.6 mg/L; in the series with Oncorhynchus mykiss (growth) it was 0.0823 mg/L; with Folsomia candida it was 39.1 mg/kg; in the series with Hypoaspis aculeifer, 39.1 mg/kg; in the series on Daphnia magna (setting [1]), 0.015 mg/L; with Daphnia magna (duration: 35 days, other) it was 0.48 mg/L. Also, the NOEC with Tagia sp. came to 38.7 mg/kg. Further, the LD50 in the series with Rattus norvegicus is > 2000 mg/kg-day; with Coturnix japonica (acute, oral, mortality) it was > 5000 mg/kg-day; in the series on Apis mellifera (dermal), > 100 µg/piece; with Apis mellifera (oral, unspecified), > 100 µg/piece. Moreover, the no observed adverse effect level (NOAEL) in the series with Rattus norvegicus (chronic, M, organ weight) amounted to 2.5 mg/kg-day; in the series on Rattus norvegicus (developmental, development), 3 mg/kg-day; in the series with Rattus norvegicus (reproduction developmental, body weight), 3 mg/kg-day; in the series on Rattus norvegicus (subchronic, F, body weight), 9.36 mg/kg-day; in the series on Coturnix japonica (chronic), 64.7 mg/kg-day.

For the origin of these results see EPA's ToxValDB 9.5 (doi:10.2903/j.efsa.2016.4605).
